Experimental data: US10053423B2, “Radioiodinated compounds” (NUtech Ventures, priority 2014, dated 2018)

Key:
[1] = Imaging (PET/CT) and biodistribution study of 124I-MIBG prepared using two methods; type: in vivo; details: male Sprague-Dawley rats, single intravenous dose, PET/CT scans at 1, 4, and 24 hours post injection; diaryliodonium salt precursor preparation vs conventional method (stannylated resin precursor)
Protocol: To determine whether the method of preparation of MIBG affected the biodistribution of the compound, high specific activity ^124I-MIBG was prepared using the diaryliodonium salt method (Example 27) and the conventional stannylated resin precursor; these compounds were imaged in rodent models.
Eight male Sprague-Dawley rats were used for the study. Upon arrival at the laboratory, each animal was inspected, uniquely identified with the animal number written on their tails, and weighed. The animals were judged to be in good health and were immediately placed in acclimation. Animals were between 6-14 weeks of age and weighed 440.5±36.4 g.
After a single intravenous dose of ^124I-MIBG prepared by diaryliodonium salt precursor, or ^124I-MIBG prepared with conventional method, Sprague-Dawley rats were given PET/CT scans at 1, 4, and 24 hours post injection of radiotracer. Biodistribution analysis was performed to quantify the amount of uptake in each animal's heart, liver, kidneys, thyroid, quadriceps muscle, and whole body as a function of time. Data is presented in units of μCi, μCi/mm3, % ID, and % ID/g. The radiochemical purity of all compounds as assessed by HPLC was >97% within an hour of administration.

[2] = Thermal stability to iodine loss during the deprotection reaction; type: physicochemical; details: during the deprotection reaction (6M HCl, 100° C., 10 minutes), compared to MIBG
Protocol: The residue in the reactor vial was dissolved in 200 μl of 6M HCl, and heated at 100° C. for 10 minutes. The solution was allowed to cool for one minute and neutralized with 120 μl of 10M NaOH. A reverse phase (C18) sep pak was rinsed with ethanol (10 mL) and water (10 mL) and blown dry. The neutralized solution ([…]) was passed through the sep pak and the sep pak was rinsed with 2 mL of water (to elute any remaining salts) and blown dry. Ethanol (0.8 mL) was passed through the sep pak to elute the radiolabeled benzylguanidine derivative. Ethanol was removed using a stream of nitrogen before the material was purified by HPLC.
124I-2,4-difluoro-3-iodobenzylguanidine was prepared in 80±6% radiochemical yield (n=4) at the 1-2 mCi scale using the procedure outlined in Example 26. Following isolation, the product was >99% chemically and radiochemically pure, as assayed by HPLC.

NC(N)=NCc1cccc([124I])c1 [^124I-MIBG]
biodistribution (uptake in heart, liver, kidneys, thyroid, quadriceps muscle, and whole body as a function of time) [1]: no noted qualitative or quantitative difference

N=C(N)NCc1ccc(F)c([124I])c1F [124I-2,4-difluoro-3-iodobenzylguanidine, ^124I-2,4-difluoro-3-iodobenzylguanidine]
thermal stability to iodine loss [2]: greater thermal stability to iodine loss
